Assay [1] deals with biotinylated human IL-17A / AF647-labeled human IL-17RA (Homo sapiens, UniProt Q16552). The experiment in a line: Human IL-17A×IL-17RA TR-FRET assay. It is filed as binding. The procedure:
Human IL-17A×IL-17RA TR-FRET Assay
Each compound concentration is tested in duplicate.
The final total assay volume is 10 μL.
Each plate contains test compounds in columns 1-22 and controls in columns 23 and 24. The neutral control (NC) contains all the assay components, but DMSO instead of test compound. […] The fluorescence values for emission at 615 nm and 665 nm are loaded to the evaluation software Helios.
From the activity data at each compound concentration, the IC50 values are obtained using the 4-parameter logistic function (“Hill-slope model”) of Helios.
A general note: In TR-FRET formats the signal depends on donor and acceptor labels being close together.

The target of assay [2] is recombinant human IL-17AA (Homo sapiens, UniProt Q16552). The experiment in a line: IL-6 release from NHDF cells, IL-17AA plus TNF-α stimulation. It is filed as cell-based. Conditions: 24 hours, IL-6 by ELISA. The procedure:
IL-6 Release from NHDF Cells (Normal Human Dermal Fibroblasts)
NHDF cells isolated from normal adult mesoderm, connective tissues were cultured in fibroblast growth medium containing 2% supplement. […] The cells were allowed to adhere overnight before they were incubated with the compound/cytokine cocktail.
Diluted compounds were pre-incubated with recombinant human IL-17AA or IL-17AF plus human TNF-α for 30 minutes at room temperature on a shaker. […] The cells were incubated with the compound/cytokines cocktail for 24 hours at 37° C. (5% CO2). […] The final DMSO or plasma concentrations were 0.1% or 20%, respectively. All compound incubations were done in duplicate. The supernatants were collected to quantify IL-6 by ELISA according to the manufacturers instructions. The optical density was measured at 450 nm by an EnVision Multilabel Plate Reader (Perkin Elmer). The IL-6 levels produced after TNF-α stimulation were subtracted from the IL-6 produced after IL-17/TNF-α co-stimulation. These IL-17-specific IL-6 concentrations were used for […] value calculation.
For orientation: ELISA stands for enzyme-linked immunosorbent assay.

[3] abbreviates: TR-FRET, biotinylated human IL-17A 5 nM, AF647-labeled human IL-17RA 30 nM, read-out: IL17AA FRET/ IL17Rawt IC50.
[4] abbreviates: NHDF cells, IL-17AA 30 pM plus TNF-α 6 pM, read-out: IL17AA + TNF IC50 IL-6.
The mark [5] stands for this setting: IL17AA FRET/ IL17Rawt IC50, TR-FRET, biotinylated human IL-17A 5 nM, AF647-labeled human IL-17RA 30 nM.
Where [6] appears, read: IL17AA + TNF IC50 IL-6, NHDF cells, IL-17AA 30 pM plus TNF-α 6 pM.
Where [7] appears, read: TR-FRET, 5 nM IL-17A, 30 nM IL-17RA, read-out: IL17AA FRET/ IL17Rawt IC50.
[8] abbreviates: NHDF cells, IL-17AA 30 pM + TNF-α 6 pM, read-out: IL17AA + TNF IC50 IL-6.

SMILES strings stand for the structures. Where two headings read alike, the source gives them in different places.

Chain of recombinant human IL-17AA (Q16552 24-155): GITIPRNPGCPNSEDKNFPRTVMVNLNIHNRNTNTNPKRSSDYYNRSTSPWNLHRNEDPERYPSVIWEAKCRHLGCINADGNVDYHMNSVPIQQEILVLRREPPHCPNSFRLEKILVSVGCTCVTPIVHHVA
Chain of biotinylated human IL-17A / AF647-labeled human IL-17RA (Q16552 24-155): as above

In the case of `CCn1nccc1C(=O)N[C@H](C(=O)Nc1ccc(-c2c(Cl)cc[n+]([O-])c2C)cc1)C1CCC(F)(F)CC1` (single isomer, unassigned) [Example 13a], the IC50 in assay [1] (setting [3]) was determined as 16 nM; in assay [2] (setting [4]), 11 nM.

Turning to `Cc1c(-c2ccc(NC(=O)C(NC(=O)c3ccnn3C)C3CC4C(C3)C4(F)F)cc2)c(Cl)cc[n+]1[O-]` (single isomer, unassigned) [Example 54a], the IC50 in assay [1] (setting [5]) is 28 nM; in assay [2] (setting [6]), 34 nM.

In the case of `CCn1nccc1C(=O)NC(C(=O)Nc1ccc(-c2c(C(F)(F)F)cc[n+]([O-])c2C)cc1)C1CC2CC2C1` (single isomer, unassigned) [Example 64], the IC50 turned out to be 74 nM in assay [1] (setting [5]) and 25 nM in assay [2] (setting [6]).

Consider `CCn1nccc1C(=O)NC(C(=O)Nc1ccc(-c2c(Cl)cc[n+]([O-])c2C)cc1)C1CC2CC2C1` (single isomer, unassigned) [Example 145], for which the IC50 in assay [1] (setting [7]) turned out to be 24 nM; in assay [2] (setting [8]), 23.5 nM.

With `Cc1nocc1C(=O)NC(C(=O)Nc1ccc(-c2c(Cl)cc[n+]([O-])c2C)cc1)C1CC2CC2C1` (single isomer, unassigned) [Example 181], the values for the IC50 in assay [1] (setting [7]) and in assay [2] (setting [8]) were 54.8 nM and 64 nM, respectively.

Take `Cc1cc[n+]([O-])c(C)c1-c1ccc(NC(=O)C(NC(=O)c2ccc3n2CCN(C)C3)C2CC3CC3C2)cc1` (single isomer, unassigned) [Example 192]: the figures for the IC50 in assay [1] (setting [7]) and in assay [2] (setting [8]) were 151 nM and 142 nM, respectively.

Take `Cc1nocc1C(=O)NC(C(=O)Nc1ccc(-c2c(Cl)cc[n+]([O-])c2C)cc1)C1CC2CC2C1` (single isomer, unassigned) [Example 198]: the IC50 in assay [1] (setting [7]) worked out at 222 nM; in assay [2] (setting [8]), 94 nM.

Take `CCn1nccc1C(=O)NC(C(=O)Nc1ccc(-c2c(Cl)cc[n+]([O-])c2C)cc1)C1CC2CC2C1` (single isomer, unassigned) [Example 209]: the IC50 is 381 nM in assay [1] (setting [7]) and 175 nM in assay [2] (setting [8]).

Regarding `Cc1cc[n+]([O-])c(C)c1-c1ccc(NC(=O)[C@@H](NC(=O)c2ccnn2C)[C@H]2CCCc3ccccc32)cc1` [Example 1, 2,4-dimethyl-3-(4-((S)-2-(1-methyl-1H-pyrazole-5-carboxamido)-2-((S)-1,2,3,4-tetrahydronaphthalen-1-yl)acetamido)phenyl)pyridine 1-oxide], the IC50 in assay [1] (setting [3]) was determined as 8 nM; in assay [2] (setting [4]), 4 nM.

Turning to `Cc1c(-c2ccc(NC(=O)[C@@H](NC(=O)c3ccnn3C)C3CCCCC3)cc2F)c(Cl)cc[n+]1[O-]` [Example 2, 4-chloro-3-(4-((S)-2-cyclohexyl-2-(1-methyl-1H-pyrazole-5-carboxamido)acetamido)-2-fluorophenyl)-2-methylpyridine 1-oxide], the IC50 was determined as 24 nM in assay [1] (setting [3]) and 15 nM in assay [2] (setting [4]).

As for `Cc1cc[n+]([O-])c(C)c1-c1ccc(NC(=O)C(NC(=O)c2ccnn2C)C2CCC(C)CC2)cc1` [Example 3, 2,4-dimethyl-3-(4-((S)-2-(1-methyl-1H-pyrazole-5-carboxamido)-2-((1r,4S)-4-methylcyclohexyl)acetamido)phenyl)pyridine 1-oxide], the IC50 stood at 24 nM in assay [1] (setting [3]) and 7 nM in assay [2] (setting [4]).

As for `CCc1nocc1C(=O)NC(C(=O)Nc1ccc(-c2c(Cl)cc[n+]([O-])c2C)cc1)C1CCC(C(F)(F)F)CC1` [Example 4, 4-chloro-3-(4-((S)-2-(3-ethylisoxazole-4-carboxamido)-2-((1r,4S)-4-(trifluoromethyl)cyclohexyl)acetamido)phenyl)-2-methylpyridine 1-oxide], the IC50 in assay [1] (setting [3]) was 26 nM; in assay [2] (setting [4]), 12 nM.

With `CCn1nccc1C(=O)NC(C(=O)Nc1ccc(-c2c(C)cc[n+]([O-])c2C)cc1)C1CCC(C(F)(F)F)CC1` [Example 7, 3-(4-((S)-2-(1-ethyl-1H-pyrazole-5-carboxamido)-2-((1r,4S)-4-(trifluoromethyl)cyclohexyl)acetamido)phenyl)-2,4-dimethylpyridine 1-oxide], the IC50 in assay [1] (setting [5]) was 46 nM; in assay [2] (setting [6]) it was 26 nM.

On to `CCc1nocc1C(=O)NC(C(=O)Nc1ccc(-c2c(C)cc[n+]([O-])c2C)cc1)C1CCC(C(F)(F)F)CC1` [Example 8, 3-(4-((S)-2-(3-ethylisoxazole-4-carboxamido)-2-((1r,4S)-4-(trifluoromethyl)cyclohexyl)acetamido)phenyl)-2,4-dimethylpyridine 1-oxide], for which the results for the IC50 in assay [1] (setting [3]) and in assay [2] (setting [4]) were 41 nM and 4 nM, respectively.

With `Cc1nocc1C(=O)N[C@H](C(=O)Nc1ccc(-c2c(C(F)(F)F)cc[n+]([O-])c2C)cc1)[C@H]1CCCC(F)(F)C1` [Example 9, 3-(4-((S)-2-((S)-3,3-difluorocyclohexyl)-2-(3-methylisoxazole-4-carboxamido)acetamido)phenyl)-2-methyl-4-(trifluoromethyl)pyridine 1-oxide], the values for the IC50 in assay [1] (setting [3]) and in assay [2] (setting [4]) were 60 nM and 4 nM, respectively.

Consider `CCn1nccc1C(=O)N[C@H](C(=O)Nc1ccc(-c2c(C(F)(F)F)cc[n+]([O-])c2C)cc1)[C@H]1CCCC(F)(F)C1` [Example 10, 3-(4-((S)-2-((S)-3,3-difluorocyclohexyl)-2-(1-ethyl-1H-pyrazole-5-carboxamido)acetamido)phenyl)-2-methyl-4-(trifluoromethyl)pyridine 1-oxide], for which the IC50 in assay [1] (setting [3]) came to 93 nM; in assay [2] (setting [4]), 11 nM.

Take `CCn1nccc1C(=O)N[C@H](C(=O)Nc1ccc(-c2c(C(F)(F)F)cc[n+]([O-])c2C)cc1)C1CCC(F)(F)CC1` [Example 11, (S)-3-(4-(2-(4,4-difluorocyclohexyl)-2-(1-ethyl-1H-pyrazole-5-carboxamido)acetamido)phenyl)-2-methyl-4-(trifluoromethyl)pyridine 1-oxide]: the results for the IC50 in assay [1] (setting [3]) and in assay [2] (setting [4]) were 82 nM and 20 nM, respectively.

Take `Cc1nocc1C(=O)N[C@H](C(=O)Nc1ccc(-c2c(Cl)cc[n+]([O-])c2C)c(F)c1)C1CCCCC1` [Example 14, 4-chloro-3-(4-((S)-2-cyclohexyl-2-(3-methylisoxazole-4-carboxamido)acetamido)-2-fluorophenyl)-2-methylpyridine 1-oxide]: the IC50 in assay [1] (setting [3]) was 24 nM; in assay [2] (setting [4]) it was 9 nM.

`COCCn1nccc1C(=O)N[C@H](C(=O)Nc1ccc(-c2c(Cl)cc[n+]([O-])c2C)c(F)c1)C1CCCCC1` [Example 15, 4-chloro-3-(4-((S)-2-cyclohexyl-2-(1-(2-methoxyethyl)-1H-pyrazole-5-carboxamido)acetamido)-2-fluorophenyl)-2-methylpyridine 1-oxide]: the values for the IC50 in assay [1] (setting [3]) and in assay [2] (setting [4]) were 52 nM and 10 nM, respectively.

On to `Cc1nscc1C(=O)N[C@H](C(=O)Nc1ccc(-c2c(Cl)cc[n+]([O-])c2C)c(F)c1)C1CCCCC1` [Example 17, 4-chloro-3-(4-((S)-2-cyclohexyl-2-(3-methylisothiazole-4-carboxamido)acetamido)-2-fluorophenyl)-2-methylpyridine 1-oxide], for which the values for the IC50 in assay [1] (setting [3]) and in assay [2] (setting [4]) were 118 nM and 18 nM, respectively.

As to `Cc1c(-c2ccc(NC(=O)C(NC(=O)c3ccnn3C)C3CCC(C(F)(F)F)CC3)cc2)c(Cl)cc[n+]1[O-]` [Example 18, 4-chloro-2-methyl-3-(4-((S)-2-(1-methyl-1H-pyrazole-5-carboxamido)-2-((1r,4S)-4-(trifluoromethyl)cyclohexyl)acetamido)phenyl)pyridine 1-oxide], the values for the IC50 in assay [1] (setting [3]) and in assay [2] (setting [4]) were 25 nM and 28 nM, respectively.

With `Cc1nocc1C(=O)NC(C(=O)Nc1ccc(-c2c(Cl)cc[n+]([O-])c2C)cc1)C1CCC(C(F)(F)F)CC1` [Example 19, 4-chloro-2-methyl-3-(4-((S)-2-(3-methylisoxazole-4-carboxamido)-2-((1r,4S)-4-(trifluoromethyl)cyclohexyl)acetamido)phenyl)pyridine 1-oxide], the IC50 in assay [1] (setting [3]) came to 26 nM; in assay [2] (setting [4]) it was 20 nM.

Regarding `CCn1nccc1C(=O)N[C@H](C(=O)Nc1ccc(-c2c(C(F)(F)F)cc[n+]([O-])c2C)cc1)C1CCCC1` [Example 21, (S)-3-(4-(2-cyclopentyl-2-(1-ethyl-1H-pyrazole-5-carboxamido)acetamido)phenyl)-2-methyl-4-(trifluoromethyl)pyridine 1-oxide], the IC50 in assay [1] (setting [3]) came out at 39 nM; in assay [2] (setting [4]) it was 31 nM.

The record behind these values is patent US12600728B2, “Interleukin-17 inhibitors” (priority 2020, dated 2026).
